How the values were obtained:
Conditions in all cases: CAMHB, incubation time 20 h
cefiderocol = compound: CC(C)(O/N=C(\C(=O)N[C@@H]1C(=O)N2C(C(=O)[O-])=C(C[N+]3(CCNC(=O)c4ccc(O)c(O)c4Cl)CCCC3)CS[C@H]12)c1csc(N)n1)C(=O)O [cefiderocol]
meropenem = compound: C[C@@H](O)[C@H]1C(=O)N2C(C(=O)O)=C(S[C@@H]3CN[C@H](C(=O)N(C)C)C3)[C@H](C)[C@H]12 [meropenem]
ceftazidime = compound: CC(C)(O/N=C(\C(=O)N[C@@H]1C(=O)N2C(C(=O)[O-])=C(C[n+]3ccccc3)CS[C@H]12)c1csc(N)n1)C(=O)O [ceftazidime]

Test System | MIC (cefiderocol; avibactam 0 µg/mL) | MIC (cefiderocol; avibactam 8 µg/mL) | MIC (meropenem; avibactam 0 µg/mL) | MIC (meropenem; avibactam 8 µg/mL) | MIC (ceftazidime; avibactam 0 µg/mL) | MIC (ceftazidime; avibactam 8 µg/mL)
B. dolosa AU2167 | > 4 µg/mL | > 4 µg/mL | 32 µg/mL | 1 µg/mL | 64 µg/mL | 
A. xylosoxidans ACH02 | 0.25 µg/mL | 0.25 µg/mL | 1 µg/mL | 1 µg/mL | 2 µg/mL | 2 µg/mL
B. contaminans LMG23361 | 0.125 µg/mL | 0.125 µg/mL | 4 µg/mL | 0.5 µg/mL | 2 µg/mL | 2 µg/mL
S. maltophilia 21NE928511 | > 4 µg/mL | > 4 µg/mL | > 64 µg/mL | > 64 µg/mL | > 128 µg/mL | > 128 µg/mL
B. cenocepacia 110041 | 0.0625 µg/mL | 0.0625 µg/mL | 32 µg/mL | 4 µg/mL |  | 
P. aeruginosa 20NB681421 | 1 µg/mL | 1 µg/mL | 1 µg/mL | 0.5 µg/mL | 4 µg/mL | 4 µg/mL
B. cenocepacia 130723 | 0.5 µg/mL | 0.25 µg/mL | 4 µg/mL | 1 µg/mL | 16 µg/mL | 8 µg/mL
S. maltophilia 04 T22674 | 0.5 µg/mL | 0.5 µg/mL | 16 µg/mL | 16 µg/mL | 2 µg/mL | 2 µg/mL
B. cenocepacia F4200989-3 | 2 µg/mL | 1 µg/mL | 32 µg/mL | 4 µg/mL | 128 µg/mL | 32 µg/mL
S. maltophilia D457 | 0.125 µg/mL | 0.125 µg/mL | 32 µg/mL | 32 µg/mL | 1 µg/mL | 1 µg/mL
B. dolosa CEP021 | 0.5 µg/mL | 0.5 µg/mL | 2 µg/mL | 1 µg/mL | 2 µg/mL | 1 µg/mL
B. multivorans 134955 | 0.125 µg/mL | 0.125 µg/mL | 8 µg/mL | 1 µg/mL | 8 µg/mL | 8 µg/mL
S. maltophilia 20NC580771 | 0.25 µg/mL | 0.25 µg/mL | > 64 µg/mL | > 64 µg/mL | > 128 µg/mL | > 128 µg/mL
B. multivorans VC15555 | > 4 µg/mL | > 4 µg/mL | 8 µg/mL | 4 µg/mL | 2 µg/mL | 2 µg/mL
A. xylosoxidans ACH09 | 0.25 µg/mL | 0.25 µg/mL | 0.125 µg/mL | 0.125 µg/mL | 1 µg/mL | 1 µg/mL
B. gladioli 113611 | 4 µg/mL | 4 µg/mL | 2 µg/mL | 2 µg/mL | 32 µg/mL | 32 µg/mL
B. vietnamiensis CEP40 | 0.125 µg/mL | 0.0625 µg/mL | 1 µg/mL | 1 µg/mL |  | 2 µg/mL
A. xylosoxidans ACH03 | 0.125 µg/mL | 0.125 µg/mL | 0.25 µg/mL | 0.25 µg/mL | 1 µg/mL | 1 µg/mL
S. maltophilia 03 T2510 | 1 µg/mL | 1 µg/mL | > 64 µg/mL | > 64 µg/mL | 32 µg/mL | 32 µg/mL
B. contaminans 21NG595759 | 1 µg/mL | 2 µg/mL | 32 µg/mL | 8 µg/mL | 16 µg/mL | 8 µg/mL
B. cenocepacia BC7 | > 4 µg/mL | > 4 µg/mL | 16 µg/mL | 1 µg/mL | 16 µg/mL | 16 µg/mL
P. aeruginosa 74 | > 4 µg/mL | > 4 µg/mL | 16 µg/mL | 2 µg/mL | 128 µg/mL | 2 µg/mL
B. dolosa AU6940 | 2 µg/mL | 2 µg/mL | 32 µg/mL | 2 µg/mL | 16 µg/mL | 16 µg/mL
B. multivorans 130034 | 0.125 µg/mL | 0.125 µg/mL | 8 µg/mL | 4 µg/mL | 8 µg/mL | 8 µg/mL
B. cenocepacia K56-2 | 0.125 µg/mL | 0.125 µg/mL | 16 µg/mL | 2 µg/mL | 32 µg/mL | 
B. multivorans 131077 | 0.125 µg/mL | 0.125 µg/mL | 4 µg/mL | 1 µg/mL | 8 µg/mL | 8 µg/mL
B. multivorans VC15535 | 0.5 µg/mL | 0.5 µg/mL | 16 µg/mL | 8 µg/mL | 32 µg/mL | 16 µg/mL
B. multivorans VC9825 | 0.25 µg/mL | 0.125 µg/mL | 2 µg/mL | 1 µg/mL | 2 µg/mL | 2 µg/mL

Source: the supplement of paper PMC10412643
